From PubChem BioAssay (NCI)
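Following 48 hours of exposure in 96-well plates, responses at five concentrations were used to interpolate endpoints linearly. The concentration for 50% growth inhibition is given as GI50. Definition used: TGI = concentration required for complete inhibition of growth.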

Key:
Test in all cases: inhibition of tumour cell growth, NCI panel, 48 h; in the data active = GI50 below about 0.43 µM; inactive = the rest
NCI-H460 lung = test system: NCI-H460 lung
UACC-62 melanoma = test system: UACC-62 melanoma
HL-60(TB) leukemia = test system: HL-60(TB) leukemia
SW-620 colon = test system: SW-620 colon
SN12C renal = test system: SN12C renal
OVCAR-4 ovarian = test system: OVCAR-4 ovarian
SF-295 CNS = test system: SF-295 CNS
MOLT-4 leukemia = test system: MOLT-4 leukemia
KM12 colon = test system: KM12 colon
ACHN renal = test system: ACHN renal
SNB-75 CNS = test system: SNB-75 CNS
IGROV1 ovarian = test system: IGROV1 ovarian
RPMI-8226 leukemia = test system: RPMI-8226 leukemia
MDA-MB-231 breast = test system: MDA-MB-231 breast
MCF7 breast = test system: MCF7 breast
SF-268 CNS = test system: SF-268 CNS
OVCAR-8 ovarian = test system: OVCAR-8 ovarian
OVCAR-5 ovarian = test system: OVCAR-5 ovarian
HCT-116 colon = test system: HCT-116 colon
PC-3 prostate = test system: PC-3 prostate
DU-145 prostate = test system: DU-145 prostate
HOP-62 NSCLC = test system: HOP-62 NSCLC
LOX IMVI melanoma = test system: LOX IMVI melanoma
OVCAR-3 ovarian = test system: OVCAR-3 ovarian
HS 578T breast = test system: HS 578T breast
UO-31 renal = test system: UO-31 renal
786-0 renal = test system: 786-0 renal
HOP-92 NSCLC = test system: HOP-92 NSCLC
MDA-MB-468 breast = test system: MDA-MB-468 breast
COLO 205 colon = test system: COLO 205 colon
CCRF-CEM leukemia = test system: CCRF-CEM leukemia
U251 CNS = test system: U251 CNS
HCT-15 colon = test system: HCT-15 colon
A549 NSCLC = test system: A549 NSCLC
EKVX NSCLC = test system: EKVX NSCLC
BT-549 breast = test system: BT-549 breast
MALME-3M melanoma = test system: MALME-3M melanoma
NCI/ADR-RES ovarian = test system: NCI/ADR-RES ovarian
SF-539 CNS = test system: SF-539 CNS
SK-OV-3 ovarian = test system: SK-OV-3 ovarian
SK-MEL-2 melanoma = test system: SK-MEL-2 melanoma
T-47D breast = test system: T-47D breast
SK-MEL-28 melanoma = test system: SK-MEL-28 melanoma
SR leukemia = test system: SR leukemia
MDA-MB-435 = test system: MDA-MB-435
TK-10 renal = test system: TK-10 renal
HCC-2998 colon = test system: HCC-2998 colon
NCI-H226 lung = test system: NCI-H226 lung
NCI-H23 lung = test system: NCI-H23 lung
NCI-H522 lung = test system: NCI-H522 lung
UACC-257 melanoma = test system: UACC-257 melanoma
K-562 leukemia = test system: K-562 leukemia
CAKI-1 renal = test system: CAKI-1 renal
SK-MEL-5 melanoma = test system: SK-MEL-5 melanoma
M14 melanoma = test system: M14 melanoma
HT29 colon = test system: HT29 colon
SNB-19 CNS = test system: SNB-19 CNS
RXF 393 renal = test system: RXF 393 renal

COc1cc(NC(=O)c2cccc(C3CCc4c(cc(OC)c(OC)c4OC)O3)c2)cc(OC)c1OC (stereo not given)
27.5 µM: TGI (MOLT-4 leukemia)
9.29 µM: TGI (T-47D breast)
4.52 µM: TGI (SK-MEL-5 melanoma)
12.7 µM: TGI (RPMI-8226 leukemia)
8.22 µM: TGI (BT-549 breast)
19.2 µM: TGI (UO-31 renal)
7.99 µM: TGI (SNB-75 CNS)
3.33 µM: TGI (MDA-MB-435)
inactive: GI50 (NCI-H460 lung) 3.24 µM | GI50 (UACC-62 melanoma) 1.74 µM | GI50 (HL-60(TB) leukemia) 2.04 µM | GI50 (SW-620 colon) 3.52 µM | GI50 (SN12C renal) 3.47 µM | GI50 (OVCAR-4 ovarian) 4.49 µM | GI50 (SF-295 CNS) 2.46 µM | GI50 (MOLT-4 leukemia) 2.86 µM | GI50 (KM12 colon) 3.1 µM | GI50 (ACHN renal) 3.77 µM | GI50 (SNB-75 CNS) 2.33 µM | GI50 (IGROV1 ovarian) 4.15 µM | GI50 (RPMI-8226 leukemia) 1.95 µM | GI50 (MDA-MB-231 breast) 4.12 µM | GI50 (MCF7 breast) 2.29 µM | GI50 (SF-268 CNS) 3.78 µM | GI50 (OVCAR-8 ovarian) 3.2 µM | GI50 (OVCAR-5 ovarian) 5.01 µM | GI50 (HCT-116 colon) 3.69 µM | GI50 (PC-3 prostate) 2.66 µM | GI50 (DU-145 prostate) 3.83 µM | GI50 (HOP-62 NSCLC) 3.51 µM | GI50 (LOX IMVI melanoma) 3.62 µM | GI50 (OVCAR-3 ovarian) 3.42 µM | GI50 (HS 578T breast) 2.04 µM | GI50 (UO-31 renal) 2.59 µM | GI50 (786-0 renal) 4.23 µM | GI50 (HOP-92 NSCLC) 3.96 µM | GI50 (MDA-MB-468 breast) 1.24 µM | GI50 (COLO 205 colon) 2 µM | GI50 (CCRF-CEM leukemia) 2.75 µM | GI50 (U251 CNS) 3.6 µM | GI50 (HCT-15 colon) 2.7 µM | GI50 (A549 NSCLC) 3.91 µM | GI50 (EKVX NSCLC) 6.37 µM | GI50 (BT-549 breast) 1.99 µM | GI50 (MALME-3M melanoma) 2.45 µM | GI50 (NCI/ADR-RES ovarian) 2.1 µM | GI50 (SF-539 CNS) 2.13 µM | GI50 (SK-OV-3 ovarian) 3.65 µM | GI50 (SK-MEL-2 melanoma) 2.66 µM | GI50 (T-47D breast) 2.5 µM | GI50 (SK-MEL-28 melanoma) 4.64 µM | GI50 (SR leukemia) 0.925 µM | GI50 (MDA-MB-435) 0.497 µM | GI50 (TK-10 renal) 4.32 µM | GI50 (HCC-2998 colon) 7.64 µM | GI50 (NCI-H226 lung) 2.55 µM | GI50 (NCI-H23 lung) 4.37 µM | GI50 (NCI-H522 lung) 1.56 µM | GI50 (UACC-257 melanoma) 3.89 µM | GI50 (K-562 leukemia) 1.75 µM | GI50 (CAKI-1 renal) 2.37 µM | GI50 (SK-MEL-5 melanoma) 1.58 µM | GI50 (M14 melanoma) 2.53 µM | GI50 (HT29 colon) 2.46 µM | GI50 (SNB-19 CNS) 5.94 µM | GI50 (RXF 393 renal) 1.59 µM
5.81 µM: TGI (SF-539 CNS)
5.31 µM: TGI (COLO 205 colon)
6.07 µM: TGI (HT29 colon)
71 µM: TGI (M14 melanoma)
> 100 µM: TGI (NCI-H460 lung) | TGI (SW-620 colon) | TGI (SN12C renal) | TGI (OVCAR-4 ovarian) | TGI (SF-295 CNS) | TGI (KM12 colon) | TGI (ACHN renal) | TGI (IGROV1 ovarian) | TGI (MDA-MB-231 breast) | TGI (MCF7 breast) | TGI (SF-268 CNS) | TGI (OVCAR-8 ovarian) | TGI (OVCAR-5 ovarian) | TGI (HCT-116 colon) | TGI (PC-3 prostate) | TGI (DU-145 prostate) | TGI (HOP-62 NSCLC) | TGI (LOX IMVI melanoma) | TGI (OVCAR-3 ovarian) | TGI (786-0 renal) | TGI (HOP-92 NSCLC) | TGI (CCRF-CEM leukemia) | TGI (U251 CNS) | TGI (HCT-15 colon) | TGI (A549 NSCLC) | TGI (EKVX NSCLC) | TGI (MALME-3M melanoma) | TGI (SK-OV-3 ovarian) | TGI (SK-MEL-2 melanoma) | TGI (SK-MEL-28 melanoma) | TGI (TK-10 renal) | TGI (HCC-2998 colon) | TGI (NCI-H23 lung) | TGI (UACC-257 melanoma) | TGI (K-562 leukemia) | TGI (CAKI-1 renal) | TGI (SNB-19 CNS)
8.46 µM: TGI (RXF 393 renal)
4.63 µM: TGI (NCI-H522 lung)
6.91 µM: TGI (NCI/ADR-RES ovarian)
5.79 µM: TGI (HL-60(TB) leukemia)
84.9 µM: TGI (SR leukemia)
6.74 µM: TGI (HS 578T breast)
8.33 µM: TGI (UACC-62 melanoma)
4.41 µM: TGI (MDA-MB-468 breast)
